According to publication PMC8963254, “Effects of Lysine N-ζ-Methylation in Ultrashort Tetrabasic Lipopeptides (UTBLPs) on the Potentiation of Rifampicin, Novobiocin, and Niclosamide in Gram-Negative Bacteria” (Antibiotics, 2022):
In brackets after ≈: the same amount, converted by molar mass. Where two headings read alike, the source gives them in different places. Non-standard residues stand in square brackets, D forms with d. Residues, ends and D or L forms follow the SMILES beside them. *: point of attachment. Lys(Me) = CNCCCC[C@H](N)C(=O)O; Octanoyl = CCCCCCCC(=O)*

Columns and labels:
[1] = test system: K. pneumoniae 113250; assay: microbe, parasite or virus in culture; type: cell-based, Klebsiella pneumoniae; conditions: 113250, 18 h
Outline: (§1)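 MIC was determined by broth microdilution following CLSI guidelines. Serially varied compound concentrations were incubated with bacterial inoculum at 5 × 10^5 CFU/mL (final) for 18 h at 37 °C. Growth was scored as turbidity by absorbance at 590 nm.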

[2] = test system: A. baumannii AB027; type: cell-based, Acinetobacter baumannii; conditions: for MICUTBLP: UTBLP alone
Procedure: (§2) The synergy of the UTBLPs with various antibiotics was assessed using checkerboard assay as previously described. Briefly, the combination of antibiotic and OMP at varying concentrations were incubated with bacterial inoculum (5 × 10^5 CFU/mL final concentration) at 37 °C for 18 h. Growth in the form of turbidity was confirmed using an EMax Plus microplate reader (Molecular Devices, Union City, CA, USA) at 590 nm. Fractional inhibitory concentration index (FICI) was used to evaluate the interaction between the antibiotic and the OMP. FICI is the sum of the FIC of the antibiotic and the FIC of the OMP. The FIC value is calculated by dividing the MIC of the agents in combination by the MIC of the agent alone. FICI ≤ 0.5 is synergistic, 0.5 < x ≤ 4 is additive, and >4 is antagonistic.

[3] = test system: A. baumannii ATCC 17978; type: cell-based, Acinetobacter baumannii; conditions: for MICUTBLP: UTBLP alone
Procedure: as §2

[4] = test system: A. baumannii 92247; type: cell-based, Acinetobacter baumannii; conditions: for MICUTBLP: UTBLP alone
Procedure: as §2

[5] = test system: E. faecium ATCC 27270; type: cell-based, Enterococcus faecium
Procedure: as §2

[6] = test system: S. aureus ATCC 29213; type: cell-based, Staphylococcus aureus
Procedure: as §2

[7] = test system: MRSA ATCC 33592; type: cell-based, Staphylococcus aureus
Procedure: as §2

[8] = test system: E. cloacae 118564; assay: microbe, parasite or virus in culture; type: cell-based, Enterobacter cloacae; conditions: 118564, 18 h
Outline: as §1

[9] = test system: E. coli 94393; type: cell-based, Escherichia coli; conditions: for MICUTBLP: UTBLP alone
Outline: (§3)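 Values derive from a two-agent checkerboard with an 18 h, 37 °C incubation. FICI cut-offs: ≤0.5 synergy, 0.5–4 additive, >4 antagonism.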

[10] = test system: E. coli ATCC 25922; type: cell-based, Escherichia coli; conditions: for MICUTBLP: UTBLP alone
Outline: as §3

[11] = test system: K. pneumoniae 113250; type: cell-based, Klebsiella pneumoniae; conditions: for MICUTBLP: UTBLP alone
Procedure: as §2

[12] = test system: E. faecium ATCC 27270; type: cell-based, Enterococcus faecium; conditions: ATCC 27270, 18 h
Procedure: The in vitro antibacterial activity of the UTBLPs was assessed against wild-type and clinically isolated bacterial strains. To obtain the MIC of the compounds, the microbroth dilution susceptibility assay was performed according to the Clinical and Laboratory Standards Institute (CLSI, Wayne, PA, USA) guidelines and as previously described. Briefly, the compounds at varying concentrations were incubated with bacterial inoculum (5 × 10^5 CFU/mL final concentration) at 37 °C for 18 h. Growth in the form of turbidity was confirmed using an EMax Plus microplate reader (Molecular Devices, San Jose, CA, USA) at 590 nm.

[13] = UTBLP in combination with novobiocin
[14] = UTBLP in combination with rifampicin
[15] = novobiocin in combination with the UTBLP
[16] = rifampicin in combination with the UTBLP
[17] = UTBLP in combination with chloramphenicol
[18] = UTBLP in combination with niclosamide
[19] = chloramphenicol in combination with the UTBLP
[20] = niclosamide in combination with the UTBLP
[21] = UTBLP alone, plate with chloramphenicol

MIC [1]: > 128 µg/mL
MICUTBLP ([2]; plate with novobiocin): > 128 µg/mL
MICUTBLP ([2]; plate with rifampicin): > 128 µg/mL
MICUTBLP [MICcombo] [2, 13]: 16 µg/mL
MICUTBLP [MICcombo] [2, 14]: 16 µg/mL
MICantibiotic [MICcombo] [2, 15]: 0.031 µg/mL
MICantibiotic [MICcombo] [2, 16]: 0.002 µg/mL
MICUTBLP ([3]; plate with chloramphenicol): 64 µg/mL
MICUTBLP ([3]; plate with niclosamide): 64 µg/mL
MICUTBLP ([3]; plate with novobiocin): 64 µg/mL
MICUTBLP ([3]; plate with rifampicin): 64 µg/mL
MICUTBLP [MICcombo] [3, 17]: 8 µg/mL
MICUTBLP [MICcombo] [3, 18]: 1 µg/mL
MICUTBLP [MICcombo] [3, 13]: 4 µg/mL
MICUTBLP [MICcombo] [3, 14]: 2 µg/mL
MICantibiotic [MICcombo] [3, 19]: 32 µg/mL
MICantibiotic [MICcombo] [3, 20]: 4 µg/mL
MICantibiotic [MICcombo] [3, 15]: 0.25 µg/mL
MICantibiotic [MICcombo] [3, 16]: 0.031 µg/mL
MICUTBLP ([4]; plate with novobiocin): 32 µg/mL
MICUTBLP ([4]; plate with rifampicin): 32 µg/mL
MICUTBLP [MICcombo] [4, 13]: 1 µg/mL
MICUTBLP [MICcombo] [4, 14]: 0.5 µg/mL
MICantibiotic [MICcombo] [4, 15]: 0.125 µg/mL
MICantibiotic [MICcombo] [4, 16]: 0.063 µg/mL
MICUTBLP [5, 21]: 64 µg/mL
MICUTBLP [MICcombo] [5, 17]: 4 µg/mL
MICchloramphenicol [MICcombo] [5, 19]: 4 µg/mL
MICUTBLP [6, 21]: 128 µg/mL
MICUTBLP [MICcombo] [6, 17]: 16 µg/mL
MICchloramphenicol [MICcombo] [6, 19]: 4 µg/mL
MICUTBLP [7, 21]: > 128 µg/mL
MICUTBLP [MICcombo] [7, 17]: 0.25 µg/mL
MICchloramphenicol [MICcombo] [7, 19]: 64 µg/mL
MIC [8]: > 128 µg/mL
MICUTBLP ([9]; plate with novobiocin): 64 µg/mL
MICUTBLP ([9]; plate with rifampicin): 64 µg/mL
MICUTBLP [MICcombo] [9, 13]: 4 µg/mL
MICUTBLP [MICcombo] [9, 14]: 4 µg/mL
MICantibiotic [MICcombo] [9, 15]: 1 µg/mL
MICantibiotic [MICcombo] [9, 16]: 0.25 µg/mL
MICUTBLP ([10]; plate with chloramphenicol): 32 µg/mL
MICUTBLP ([10]; plate with niclosamide): 32 µg/mL
MICUTBLP ([10]; plate with novobiocin): 32 µg/mL
MICUTBLP ([10]; plate with rifampicin): 32 µg/mL
MICUTBLP [MICcombo] [10, 17]: 8 µg/mL
MICUTBLP [MICcombo] [10, 18]: 1 µg/mL
MICUTBLP [MICcombo] [10, 13]: 2 µg/mL
MICUTBLP [MICcombo] [10, 14]: 4 µg/mL
MICantibiotic [MICcombo] [10, 19]: 2 µg/mL
MICantibiotic [MICcombo] [10, 20]: 2 µg/mL
MICantibiotic [MICcombo] [10, 15]: 0.5 µg/mL
MICantibiotic [MICcombo] [10, 16]: 0.063 µg/mL
MICUTBLP ([11]; plate with novobiocin): > 128 µg/mL
MICUTBLP ([11]; plate with rifampicin): > 128 µg/mL
MICUTBLP [MICcombo] [11, 13]: 16 µg/mL
MICUTBLP [MICcombo] [11, 14]: 16 µg/mL
MICantibiotic [MICcombo] [11, 15]: 2 µg/mL
MICantibiotic [MICcombo] [11, 16]: 1 µg/mL
MIC [12]: 64 µg/mL (≈ 66.2 µM)
SMILES: CCCCCCCC(=O)NCCCC[C@H](NC(=O)CCCCCCC)C(=O)N[C@@H](CCCCNC)C(=O)N[C@@H](CCCCNC)C(=O)N[C@@H](CCCCNC)C(=O)N[C@@H](CCCCNC)C(N)=O [UTBLP 6] (Octanoyl-K(Octanoyl)[Lys(Me)][Lys(Me)][Lys(Me)][Lys(Me)]-NH2)
Interpretation ([2]; UTBLP + novobiocin): Synergy (FICI ≤ 0.5 is synergistic)
Interpretation ([2]; UTBLP + rifampicin): Synergy (FICI ≤ 0.5 is synergistic)
Interpretation ([3]; UTBLP + chloramphenicol): Additive (0.5 < x ≤ 4 is additive)
Interpretation ([3]; UTBLP + niclosamide): Synergy (FICI ≤ 0.5 is synergistic)
Interpretation ([3]; UTBLP + novobiocin): Synergy (FICI ≤ 0.5 is synergistic)
Interpretation ([3]; UTBLP + rifampicin): Synergy (FICI ≤ 0.5 is synergistic)
Interpretation ([4]; UTBLP + novobiocin): Synergy (FICI ≤ 0.5 is synergistic)
Interpretation ([4]; UTBLP + rifampicin): Synergy (FICI ≤ 0.5 is synergistic)
Interpretation ([5]; UTBLP + chloramphenicol): Additive (0.5 < x ≤ 4 is additive)
Interpretation ([7]; UTBLP + chloramphenicol): Additive (0.5 < x ≤ 4 is additive)
Interpretation ([9]; UTBLP + novobiocin): Synergy (FICI ≤ 0.5 is synergistic)
Interpretation ([9]; UTBLP + rifampicin): Synergy (FICI ≤ 0.5 is synergistic)
Interpretation ([10]; UTBLP + chloramphenicol): Synergy (FICI ≤ 0.5 is synergistic)
Interpretation ([10]; UTBLP + niclosamide): Synergy (FICI ≤ 0.5 is synergistic)
Interpretation ([10]; UTBLP + novobiocin): Synergy (FICI ≤ 0.5 is synergistic)
Interpretation ([10]; UTBLP + rifampicin): Synergy (FICI ≤ 0.5 is synergistic)
Interpretation ([11]; UTBLP + novobiocin): Synergy (FICI ≤ 0.5 is synergistic)
Interpretation ([11]; UTBLP + rifampicin): Synergy (FICI ≤ 0.5 is synergistic)
